Source: patent US20200121716A1, “Method for Inhibiting Both Glycolysis and Glutamine Metabolism in Cells and Use Thereof” (priority 2017, published 2020)
Read-outs that look alike come from different tables or passages of the source.

Columns and labels:
anaerobia = assay: spontaneous anaerobic fermentation of flour paste sealed with rapeseed oil; assay type: cell-based; conditions: about 7 months spontaneous fermentation, air blocked with rapeseed oil; amounts added as
fly maggot eggs = assay: meat slice preservative experiment
glutamine metabolism = assay: spontaneous fermentation of flour paste mixed with glutamine; assay type: cell-based; conditions: about 25 °C, one hour, without reducing agent 8 to 9
[1] = test system: L-glutamate dehydrogenation; assay: spontaneous fermentation of flour paste mixed with L-glutamate; assay type: cell-based; conditions: for level of water absorbed on dry test paper: paper inserted 30 minutes, without reducing agent 5 mm
[2] = cited from earlier work
[3] = trials on patients with gastric ulcer or gastrointestinal inflammation; assay type: in vivo, human; conditions: about 30 of about 80 tumor patients having gastrointestinal inflammation
[4] = spraying on brown spots on the face; assay type: in vivo, human; conditions: 5 ppm sodium selenite solution and randomly 3% aqueous sodium formate solution
[5] = trials on patients with gout, urine pH; assay type: in vivo, human
[6] = test system: anaerobic bacteria or facultative anaerobic bacteria; assay type: cell-based
bacteria = assay: preservative effect on lettuce leaf, loofah juice and celery leaf in water
fermenting microorganism = assay: flour fermentation experiment; assay type: cell-based; conditions: second day of fermentation; without sodium selenite pH 4-5
Protocol: Two portions of flour (50 g each) were used for fermentation experiments. Each portion was mixed with an equal amount (about 50 g) of water, and to one of the mixtures sodium selenite having about 200 μg selenium was added. […] The same phenomenon was observed over 20 days of continuous monitoring (the contrast between flour fragrance and the acidic odor). As measured by pH test paper, the flour with sodium selenite on the second day of fermentation was slightly alkaline with a pH of 7-8, while the flour without sodium selenite was acidified after fermentation with a pH of 4-5. […] Since tumor cells and anaerobia cells have the same steps and processes of chemical reactions in glycolysis, it is believed that tumor cells would either stop metabolism and die, or change the metabolic pattern and turn into normal cells.

tumors = assay: administration of reducing agents in cycles to tumor patients; assay type: in vivo, human; conditions: advanced lung cancer, 15-month course with bevacizumab, before reducing agents
[7] = evening of same day, bare meat densely covered
[8] = next morning, maggots appeared on untreated slice
[9] = after 3 days, sodium formate 1 g 3 times per day, sodium oxalate 1 g per day

| Compound | fly maggot eggs on the meat slice (fly maggot eggs) | fly maggot eggs on the meat slice (fly maggot eggs; [7]) | maggots on the meat slice (fly maggot eggs; [8]) | pH value of the gas in the beaker (wet pH paper) (glutamine metabolism) | level of water absorbed on dry test paper [1] | other results |
| --- | --- | --- | --- | --- | --- | --- |
| N[C@@H](CS)C(=O)O [L-cysteine] | – | – | – | – | – | aqueous solution above the settled flour (anaerobia): clear and transparent |
| O=CO [formic acid] | about 5 | – | – | – | – | maggots on the meat slice (fly maggot eggs): no maggot was hatched |
| O=C(O)C(=O)O [oxalic acid] | – | about 5 | no maggot was hatched | about 7.5 | about 9 mm | aqueous solution above the settled flour (anaerobia): clear and transparent |
| [Se] [selenium] | – | – | – | – | – | safe dose ([2]; oral intake): no more than 400 mg per day |
| O=C[O-].[Na+] [sodium formate] | – | about 5 | no maggot was hatched | about 7.5 | about 9 mm | gastrointestinal discomfort [3]: alleviated gastrointestinal discomfort; colored spots in more than 10 people [4]: faded or disappeared colored spots; pain feeling of gout [5, 9]: alleviated and even disappeared; urine pH, hospital urine test ([5]; patient with a tumor, 1 g per day for two weeks): 8; pH of water in the glutinous rice [6]: slightly decreased from about 7; pH value of water in the glutinous rice [6]: about 6 |
| O=C([O-])C(=O)[O-].[Na+].[Na+] [sodium oxalate] | about 5 | – | – | about 7.5 | about 9 mm | maggots on the meat slice (fly maggot eggs): no maggot was hatched; pain feeling of gout [5, 9]: disappeared; morning urine pH by test paper ([5]; gout patients, after 3 days, sodium formate 1 g 3 times per day, sodium oxalate 1 g per day, 5.5 to 6 during onset): 7; pH of urine tested first in the morning ([5]; patients with frequent gout, 1 g per day): increased pH |
| O=[Se](O)O [sodium selenite] | 5 | – | – | about 7.5 | 9 mm | diameter of brown rot spot on lettuce leaf (bacteria; fifth day, 180 μg selenium in 80 g tap water, 15 to 20 °C, without: about 6 mm): about 1 mm; diameter of spot on loofah juice (bacteria; fifth day, with sodium selenite): about 3 mm; day a spot first appeared on the surface of loofah juice (bacteria; loofah juice with sodium selenite, without: about 3 mm spot on second day): 3 days; pH of flour by pH test paper (fermenting microorganism): 7-8; pH value of the gas in the beaker (wet pH paper) ([1]; one hour, without sodium selenite 8): about 7.5; toxic dose ([2]; human, oral administration, publicly reported): 400 mg per day |
| bevacizumab | – | – | – | – | – | CY211 index during course (tumors): up to 28 |
| calcium formate | – | about 5 | no maggot was hatched | about 7.5 | about 9 mm | effect on pH of water in the glutinous rice [6]: same effect |
| selenium dioxide | – | about 5 | no maggot was hatched | about 7.5 | about 9 mm | – |
| sodium sulfide | about 5 | – | – | – | – | maggots on the meat slice (fly maggot eggs): no maggot was hatched |
